Results on 40 molecules are retold here after patent US8697911B2, “Rho kinase inhibitors” (Boehringer Ingelheim International GmbH, priority 2010, dated 2014).

The assay has as its target ROCKII (1-543) (Homo sapiens (Human), UniProt O75116). As to the kind of experiment: IMAP Assay (Assay 2). The class given is biochemical. The conditions noted are these: IMAP fluorescence polarization; 100 μM ATP, 1 nM kinase. As for the experimental part: This assay is performed using FAM S6 substrate peptide (Catalogue #R7184) and IMAP FP Screening Express Kit detection reagents from Molecular Devices (Sunnyvale, Calif.) in IMAP kinase reaction buffer (Tris-HCl, pH 7.2, 10 mM MgCl2, 0.05% NaN3, 0.1% phosphate-free BSA) containing 1 mM DTT. Test compounds dissolved in neat DMSO at 0.3 mg/mL are serially diluted 1 to 3 for concentration response in 100% DMSO. The DMSO serial dilutions are further diluted 33.33-fold in kinase reaction buffer, and 10 μL of this buffer dilution is transferred to Corning black 96-well half area NBS plates for a final top concentration of 3 μg/mL in 1% DMSO. 10 μL aliquot of 3 nM ROCKII (1-543) diluted in kinase reaction buffer is added to each assay well for a final concentration of 1 nM kinase. 10 μL of a mixture of 600 nM FAM S6 peptide and 300 μM ATP diluted in kinase reaction buffer is added to each well for a final concentration of 200 nM peptide and 100 μM ATP. The kinase reaction mixture is incubated for 60 minutes at room temperature. Positive controls are reaction mixtures containing no test compound and negative controls (blanks) are reaction mixtures containing no kinase. The kinase reaction is stopped by addition of 60 μL IMAP progressive binding reagent (Catalog #R7284) diluted 400-fold in 1× Binding buffer A. After 30 min of incubation at room temperature, the plates are read for fluorescence polarization on Analyst Plate Reader using Ex 485 nm, Em 530 nm, and FL 505 dichroic minor. The mP signals are converted to percent of control (POC) values using the formula: POC=100*(Signal−BCTRL)÷(PCTRL−BCTRL)
Where Signal is the test well signal, BCTRL is the average of background (negative control) well signals on the plate and PCTRL is the average of positive control well signals on the plate. For the concentration-responsive compounds, POC as a function of test compound concentration is fitted to a 4-parameter logistic equation of the form: Y=A+(B−A)/[1+(x/C)D]
Where A, B, C, and D are fitted parameters (parameter B is fixed at zero POC), and x and y are the independent and dependent variables, respectively. The IC50 is determined as the inflection point parameter, C.

pIC50: −log10 of the molar value.

Sequence of ROCKII (1-543) (O75116 1-543, species assumed): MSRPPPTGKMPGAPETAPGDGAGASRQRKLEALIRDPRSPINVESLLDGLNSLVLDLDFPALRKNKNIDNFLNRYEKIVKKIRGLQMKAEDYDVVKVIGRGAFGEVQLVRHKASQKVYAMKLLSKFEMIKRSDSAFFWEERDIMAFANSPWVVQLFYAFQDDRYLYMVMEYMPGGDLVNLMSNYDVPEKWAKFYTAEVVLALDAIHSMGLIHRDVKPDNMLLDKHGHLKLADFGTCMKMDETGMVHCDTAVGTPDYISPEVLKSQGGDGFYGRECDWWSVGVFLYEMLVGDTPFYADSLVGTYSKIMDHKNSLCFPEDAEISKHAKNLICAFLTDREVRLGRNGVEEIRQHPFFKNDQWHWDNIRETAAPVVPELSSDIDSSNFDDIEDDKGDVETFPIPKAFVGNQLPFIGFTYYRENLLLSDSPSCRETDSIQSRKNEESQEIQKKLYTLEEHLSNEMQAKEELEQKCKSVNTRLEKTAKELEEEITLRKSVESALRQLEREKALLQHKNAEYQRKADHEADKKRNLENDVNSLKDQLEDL

`CN(C)[C@H]1CCc2nc(NC(=O)c3cccc(CNC(=O)c4cc(-c5ccncc5)[nH]n4)c3)sc2C1` [compound 207] had a pIC50 of 9.70.

The molecule `N[C@@H]1CCc2nc(NC(=O)c3cccc(CNC(=O)c4csc(-c5ccncc5)n4)c3)sc2C1` [compound 32] had a pIC50 of 8.32.

`CN1CCc2nc(NC(=O)c3cccc(CNC(=O)c4ccc(-c5ccncc5)cc4)c3)sc2C1` [compound 56]: the pIC50 is 9.59.

Take `CN1CCc2ccc(NC(=O)c3cccc(CNC(=O)N4CCc5c(C#N)cccc54)c3)cc2C1` [compound 201, 4-cyano-2,3-dihydro-indole-1-carboxylic acid 3-(2-methyl-1,2,3,4-tetrahydro-isoquinolin-7-ylcarbamoyl)-benzylamide]: the pIC50 was 7.47.

In the case of `Cc1nc(-c2ccncc2)sc1C(=O)NCc1cccc(C(=O)Nc2nc3c(s2)C[C@@H](N2CCOCC2)CC3)c1` [compound 168], the pIC50 is 9.43.

For the molecule `CN1CCc2nc(NC(=O)c3cccc(CNC(=O)c4ccc(-c5cnco5)s4)c3)sc2C1` [compound 114], the pIC50 was 9.35.

Take `CN1CCc2ccc(NC(=O)c3cccc(CNC(=O)c4nc(-c5cccnc5)cs4)c3)cc2C1` [compound 202]: the pIC50 is 7.14.

In turn, `CN(C)[C@H]1CCc2nc(NC(=O)c3cccc(CNC(=O)c4ccc(-c5ccncc5)s4)c3)sc2C1` [compound 126] had a pIC50 of 9.57.

Turning to `CN1CCc2nc(NC(=O)c3cccc(CNC(=O)c4ccc(-n5ccnc5)cc4)c3)sc2C1` [compound 2], the pIC50 is 8.72.

On to `CN(C)[C@H]1CCc2nc(NC(=O)c3cccc(CNC(=O)c4ccc(-c5cn[nH]c5)s4)c3)sc2C1` [compound 130], for which the pIC50 was 9.66.

Consider `O=C(NCc1cccc(C(=O)Nc2nc3c(s2)C[C@@H](N2CCOCC2)CC3)c1)c1cccc(-c2cn[nH]c2)c1` [compound 170], for which the pIC50 is 9.39.

On to `CN1CCc2nc(NC(=O)c3cccc(CNC(=O)c4ccc(-c5cnco5)cc4)c3)sc2C1` [compound 12], for which the pIC50 was 9.68.

Regarding `CN(C)[C@H]1CCc2nc(NC(=O)c3cccc(CNC(=O)c4ccc(-n5ccnc5)cc4)c3)sc2C1` [compound 134], the pIC50 is 9.62.

On to `CN1CCc2nc(NC(=O)c3cccc(CNC(=O)c4ccc(-c5ccncc5)s4)c3)sc2C1` [compound 112], for which the pIC50 was 9.74.

Molecule `CN1CCc2ccc(NC(=O)c3cccc(CNC(=O)c4ccc(-c5cn[nH]c5)s4)c3)cc2C1` [compound 78, 5-(1H-pyrazol-4-yl)-thiophene-2-carboxylic acid 3-(2-methyl-1,2,3,4-tetrahydro-isoquinolin-7-ylcarbamoyl)-benzylamide] gave a pIC50 of 9.77.

Molecule `Cc1nnnn1-c1ccc(C(=O)NCc2cccc(C(=O)Nc3nc4c(s3)C[C@@H](N(C)C)CC4)c2)cc1` [compound 104] showed a pIC50 of 9.37.

Consider `CN(C)[C@H]1CCc2nc(NC(=O)c3cccc(CNC(=O)c4cccc(-c5cn[nH]c5)c4)c3)sc2C1` [compound 132], for which the pIC50 was 9.49.

Turning to `CN1CCc2nc(NC(=O)c3cccc(CNC(=O)c4cn5cc(C(N)=O)ccc5n4)c3)sc2C1` [compound 209], the pIC50 is 8.43.

Turning to `O=C(Nc1nc2c(s1)C[C@@H](N1CCOCC1)CC2)c1cccc(CNC(=O)c2csc(-c3ccncc3)n2)c1` [compound 164], the pIC50 is 9.03.

`CN(C)[C@H]1CCc2nc(NC(=O)c3cccc(CNC(=O)c4nnn(-c5nonc5N)c4-c4ccccc4)c3)sc2C1` [compound 138] showed a pIC50 of 9.68.

The molecule `CN1CCc2nc(NC(=O)c3cccc(CNC(=O)c4ccc(-c5cn[nH]c5)s4)c3)sc2C1` [compound 120] gave a pIC50 of 9.11.

`N#Cc1ccc2cc(C(=O)NCc3cccc(C(=O)Nc4nc5c(s4)C[C@@H](N4CCOCC4)CC5)c3)[nH]c2c1` [compound 176] had a pIC50 of 9.06.

For the molecule `CN(C)[C@H]1CCc2nc(NC(=O)c3cccc(CNC(=O)c4ccc(-c5cnco5)cc4)c3)sc2C1` [compound 136], the pIC50 was 9.70.

The molecule `O=C(NCc1cccc(C(=O)Nc2nc3c(s2)C[C@@H](N2CCOCC2)CC3)c1)c1ccc(-c2cnco2)cc1` [compound 162] had a pIC50 of 9.37.

`Nc1nonc1-n1nnc(C(=O)NCc2cccc(C(=O)Nc3nc4c(s3)C[C@@H](N3CCOCC3)CC4)c2)c1-c1ccccc1` [compound 150] showed a pIC50 of 8.58.

With `O=C(Nc1nc2c(s1)C[C@@H](N1CCOCC1)CC2)c1cccc(CNC(=O)c2csc(-c3cccnc3)n2)c1` [compound 146], the pIC50 is 9.14.

`CN(C)[C@H]1CCc2nc(NC(=O)c3cccc(CNC(=O)c4cn5ccc(C#N)cc5n4)c3)sc2C1` [compound 98] showed a pIC50 of 9.57.

Turning to `N#Cc1ccn2cc(C(=O)NCc3cccc(C(=O)Nc4nc5c(s4)C[C@@H](N4CCOCC4)CC5)c3)nc2c1` [compound 148], the pIC50 is 9.28.

The molecule `CN(C)[C@H]1CCc2nc(NC(=O)c3cccc(CNC(=O)c4csc(-c5cccnc5)n4)c3)sc2C1` [compound 108] gave a pIC50 of 9.49.

`O=C(Nc1nc2c(s1)C[C@@H](N1CCOCC1)CC2)c1cccc(CNC(=O)c2cc(-c3ccncc3)[nH]n2)c1` [compound 166] showed a pIC50 of 9.47.

Turning to `Cc1c(C(=O)NCc2cccc(C(=O)Nc3nc4c(s3)C[C@@H](N(C)C)CC4)c2)nnn1-c1nonc1N` [compound 142], the pIC50 is 9.48.

`O=C(NCc1cccc(C(=O)Nc2nc3c(s2)C[C@@H](N2CCOCC2)CC3)c1)c1ccc(-n2ccnc2)cc1` [compound 172] showed a pIC50 of 9.42.

In turn, `CN1CCc2ccc(NC(=O)c3cccc(CNC(=O)c4ccc(-c5ccncc5)s4)c3)cc2C1` [compound 70] showed a pIC50 of 9.60.

`CN1CCc2nc(NC(=O)c3cccc(CNC(=O)c4ccc5cc(O)ccc5c4)c3)sc2C1` [compound 20] gave a pIC50 of 9.41.

For the molecule `CN(C)[C@H]1CCc2nc(NC(=O)c3cccc(CNC(=O)c4ccc(-c5ccncc5)cc4)c3)sc2C1` [compound 106], the pIC50 is 9.66.

`CN(C)[C@H]1CCc2nc(NC(=O)c3cccc(CNC(=O)c4csc(-c5ccncc5)n4)c3)sc2C1` [compound 140] gave a pIC50 of 9.06.

As for `Cc1nc(-c2ccncc2)sc1C(=O)NCc1cccc(C(=O)Nc2nc3c(s2)C[C@@H](N(C)C)CC3)c1` [compound 205], the pIC50 is 9.60.

`CN1CCc2ccc(NC(=O)c3cccc(CNC(=O)c4cc5ccc(C(N)=O)cc5n4C)c3)cc2C1` [compound 84] had a pIC50 of 9.59.

The molecule `CN(C)[C@H]1CCc2nc(NC(=O)c3cccc(CNC(=O)c4ccc(-c5cnco5)s4)c3)sc2C1` [compound 128] had a pIC50 of 9.43.

As for `Cc1nnnn1-c1ccc(C(=O)NCc2cccc(C(=O)Nc3nc4c(s3)C[C@@H](N3CCOCC3)CC4)c2)cc1` [compound 174], the pIC50 is 9.46.

One may read the pIC50 as −log10 of the IC50, conventionally taken in molar units.
